# Measured values as given in patent US20110110965A1, “COMPOSITIONS THAT INDUCE T CELL HELP” (Selecta Biosciences, Inc., priority 2009, published 2011).
# Entries after “also recorded” stand apart in the source; their conditions may differ. Like-named read-outs stand apart in the source and are kept apart here. Where no end group is shown, it is not given here. [ ]: non-standard residue; d: D form.
# Experiments:
# [1] = tested on: CD4+/CD45RAlow/CD62Lhigh central memory T-cells; format: cell-based, human; conditions: for memory T-cell recall response, influenza epitopes: 5 PBMC donors, FIG. 12; for memory T-cell recall response, influenza epitopes / potency of recall response (activated central memory T-cells, CD4+/CD45RAmedium/CD62Lhigh/IFN-γ+) / memory T-cell recall response of individual peptides and heterodimeric peptides lacking a cathepsin cleavage site compared with this peptide: 4 μM peptide; for potency of recall response (activated central memory T-cells, CD4+/CD45RAmedium/CD62Lhigh/IFN-γ+): human PBMC, 20 donors, FIG. 2; for memory T-cell recall response of individual peptides and heterodimeric peptides lacking a cathepsin cleavage site compared with this peptide: 4 donors, the comparators gave the weaker response, the labelled kvsvr peptides the stronger
# [2] = tested on: CD4+/CD45RAlow/CD62Lhigh central memory T-cells; test: Dendritic cell/CD4 T-cell co-culture, multi-color intracellular cytokine analysis; format: cell-based, human; conditions: for expression of IL-4 in peptide activated memory T-cells / expression of TNF-α and IFN-γ in peptide activated memory T-cells: DC/CD4 T-cell co-culture with peptide, FIGS. 4, 5; for co-expression of TNF-α and IFN-γ / co-expression of TNF-α and IL-4: multiple color flow cytometry, FIG. 6
# Method: Early central memory-cells express multiple cytokines (IL-2, TNF-α, IFN-γ) when re-activated with specific peptides, whereas committed effector memory T-cells are thought to selectively express IL-4 for TH2 committed effector memory, and IFN-γ for TH1 committed effector memory. The status of peptide activated memory T-cells was tested using multi-color intracellular cytokine analysis of dendritic cell/CD4 cell co-cultures.
# Human peripheral blood monocytes were isolated using negative-selection magnetic beads (Dynal) and cultured in the presence of GM-CSF and IL-4 for 1 week in order to induce differentiation into dendritic cells. Allogeneic CD4 T cells were isolated using magnetic bead separation (Dynal) and co-cultured in the presence of DCs in the presence or absence of peptide. The protocol for stimulation and analysis from that point is identical to that for PBMC described above in Example 2.
substance,measurement,setting,value
CSQRSKFLLMDALKLkvsvrLIFLARSALILR [AAWkAAT],"memory T-cell recall response, influenza epitopes",[1],positive
ILMQYIKANSKFIGI QSIALSSLMVAQTLLYVLFEV (ILMQYIKANSKFIGIQSIALSSLMVAQTLLYVLFEV) [TT830DTAdV],memory T-cell recall response,[1],recall response in all 4 donors
ILMQYIKANSKFIGIPMGLPQSIALSSLMVAQ [TT830pDTt],expression of IL-4 in peptide activated memory T-cells,[2],not IL-4
same,expression of TNF-α and IFN-γ in peptide activated memory T-cells,[2],increased expression
same,co-expression of TNF-α and IFN-γ,[2],peptide induced co-expression
same,co-expression of TNF-α and IL-4,[2],not co-expression
same,"potency of recall response (activated central memory T-cells, CD4+/CD45RAmedium/CD62Lhigh/IFN-γ+)",[1]; listed as TT830 pmglpDTt,highest response; also recorded: more active than its individual components (TT830 and DT) alone
same,number (out of 20) donors positive for memory T-cells responding to peptide,"[1]; positive if greater than 0.08% responding central memory T-cells in the CD4+CD45RAlow population, FIG. 3",20/20
ILMQYIKANSKFIGIQSIALSSLMVAQ [TT830DTt],co-expression of TNF-α and IFN-γ,[2],peptide induced co-expression
same,co-expression of TNF-α and IL-4,[2],not co-expression
ILMQYIKANSKFIGIQSIALSSLMVAQAIPLVGEL [TT830DT],expression of IL-4 in peptide activated memory T-cells,[2],not IL-4
same,expression of TNF-α and IFN-γ in peptide activated memory T-cells,[2],increased expression
ILSIYSTVASSLALAIkvsvrLIFLARSALILR [ABW2kAAT],"memory T-cell recall response, influenza epitopes",[1],positive
LIFLARSALILRkvsvrILSIYSTVASSLALAI [AATkABW2],"memory T-cell recall response, influenza epitopes",[1],positive
NAELLVALENQHTIkvsvrLIFLARSALILR (NAELLVALENQHTIKVSVRLIFLARSALILR) [3120tkAAT],"memory T-cell recall response, influenza epitopes",[1],positive
TLLYVLFEVPMGLPILMQYIKANSKFIGI [AdVpTT830],"potency of recall response (activated central memory T-cells, CD4+/CD45RAmedium/CD62Lhigh/IFN-γ+)",[1],eliminated activity of the AdV epitope
TLLYVLFEVkvsvr NNFTVSFWLRVPKVSASHLET (TLLYVLFEV[dK][dV][dS][dV][dR]NNFTVSFWLRVPKVSASHLET) [AdVkTT950],memory T-cell recall response of individual peptides and heterodimeric peptides lacking a cathepsin cleavage site compared with this peptide,[1],weaker response as compared to the donor response to heterotrimeric peptides
TLLYVLFEVkvsvrQSIALSSLMVAQ (TLLYVLFEV[dK][dV][dS][dV][dR]QSIALSSLMVAQ) [AdVkDTt],memory T-cell recall response of individual peptides and heterodimeric peptides lacking a cathepsin cleavage site compared with this peptide,[1],weaker response as compared to the donor response to heterotrimeric peptides
